Patent publication US6784165B1, “Treatment of heart rhythm disturbances with N6-substituted-5′-(N-substituted) carboxamidoadenosines” (Aderis Pharmaceuticals, Inc., priority 1999, dated 2004)
Where two headings read alike, the source gives them in different places.

Assays:
[1] = Oral bioavailability estimated from bradycardia AUC oral vs intravenous in conscious rats; assay type: in vivo, rat; conditions: for bioavailability: male, Sprague-Dawley, rat, in vivo
From the text: (§1) Concentration dose-effect curve data were fitted to a sigmoid curve using Graphpad PRIZM™ software to obtain the concentration or dose of test compound that produces 50% of the maximal obtainable response, in vitro EC50 or in vivo ED50 values, for activation of the adenosine A1 receptor. Responses measured to each dose were the plateau negative inotropic response to cumulative additions of test compound in the isolated left atria and the peak bradycardia in response to bolus intravenous injections of test compound in conscious rats. Oral bioavailability was estimated from pharmacodynamic responses using the expression: (Response AUCoral/Response AUCiv)(Doseiv/Doseoral), where Response AUC is the area under the curve for test compound-induced bradycardia over time.
(§2) Male Sprague-Dawley rats were anesthetized with sodium pentobarbital 50 mg/kg i.p., and indwelling catheters were surgically implanted in the carotid artery and jugular vein two days prior to each experiment. During all subsequent experiments, rats were conscious and unrestrained. The carotid artery cannula was attached to a pressure transducer and blood pressure was recorded continuously throughout each experiment using a Grass polygraph. Heart rate was derived from the blood pressure signal using a Grass tachygraph. The measured parameters were allowed from 30 to 90 minutes to stabilize before the administration of test compound.
(§3) Test compounds were administered either by oral gavage using a curved, bulbed oral dosing cannula, or by intravenous administration via the jugular vein indwelling catheter. Rats dosed orally were fasted overnight before dosing, with water available ad libitum. Because the heart rate responses following intravenous administration of test compound rapidly returned to baseline, more than one dose of test compound could be administered to each rat. However, the responses to oral administration of test compounds were of a prolonged duration and therefore only a single dose could be administered to each rat.
A comparison of the area under the bradycardia vs. time curve (AUC) following intravenous administration with the AUC following oral administration was used as a measure of oral bioavailability.

adenosine A1 receptor [2] = target: T1, adenosine A1 receptor (Rattus norvegicus, UniProt P25099); assay: Negative inotropic response in electrically stimulated rat isolated left atria (isoproterenol-stimulated); set-up: from tissue; host or cells: whole animal (conscious Sprague-Dawley rats); conditions: plateau negative inotropic response, 1 Hz, isoproterenol 10^−8 M
T1 sequence (P25099 1-326): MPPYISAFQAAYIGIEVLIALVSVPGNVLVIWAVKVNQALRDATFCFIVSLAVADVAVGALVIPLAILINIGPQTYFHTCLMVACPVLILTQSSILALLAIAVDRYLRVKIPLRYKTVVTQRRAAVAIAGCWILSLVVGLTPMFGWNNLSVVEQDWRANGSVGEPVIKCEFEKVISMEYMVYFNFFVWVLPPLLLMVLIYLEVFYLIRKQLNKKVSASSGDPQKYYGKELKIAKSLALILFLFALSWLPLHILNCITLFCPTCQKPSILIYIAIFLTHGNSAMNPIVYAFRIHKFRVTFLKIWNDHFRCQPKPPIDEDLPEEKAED
From the text: as §1
Male Sprague-Dawley rats weighing 200-350 grams were sacrificed and the hearts rapidly removed and placed in a warmed Krebs-Henseleit buffer solution. The left atria were dissected free from the hearts and suspended in 30 mL jacketed isolated organ baths filled with Krebs-Henseleit buffer, oxygenated with 95% O2/5% CO2 and maintained at 37° C. Tissues were connected to a force displacement transducer under a resting tension of 1 gram. Atria were stimulated electrically at 1 Hz, 1 msec duration and supramaximal voltage to produce regular contractions of tissue.
Adenosine A1 agonists were added to the baths at increasing cumulative concentrations until a maximal decrease in the force of contraction was obtained. Because adenosine A1 agonists have only a small direct negative inotropic action in rat atria, it was necessary to stimulate β-adrenergic receptors to produce positive inotropy in order to maximize the negative intropic response and thereby facilitate measurement. Under these conditions, adenosine A1 agonists acting at A1 receptors indirectly reduce the β-adrenergic mediated positive inotropy. Accordingly, the β-adrenergic agonist isoproterenol (10^−8 M) was added to the organ baths approximately 15 minutes before the addition of the adenosine A1 agonist.

adenosine A1 receptor [3] = target: T1, adenosine A1 receptor; assay: Peak bradycardia after bolus intravenous injection in conscious rats; assay type: in vivo; set-up: from tissue; host or cells: whole animal (conscious Sprague-Dawley rats); conditions: bolus intravenous injections
From the text: as §1, §2, §3

Compound	bioavailability [1]	EC50 (adenosine A1 receptor [2])	ED50 (adenosine A1 receptor [3]; rat, read-out: ED50)	Oral Bioavailability [1]	ED50 (adenosine A1 receptor [3])
O=C(NCCO)[C@H]1O[C@@H](n2cnc3c(NC4CCCC4)ncnc32)[C@H](O)[C@@H]1O [B]	8.4%	11.2 nM	0.0074 µmol/kg	–	–
O=C(NC1CC1)[C@H]1O[C@@H](n2cnc3c(NC4CCCC4)ncnc32)[C@H](O)[C@@H]1O [C, N^6-cyclopentyl-5′-(N-cyclopropyl)carboxamidoadenosine]	38%	3.8 nM	0.0093 µmol/kg	–	–
CNC(=O)[C@H]1O[C@@H](n2cnc3c(NC4CCCC4)ncnc32)[C@H](O)[C@@H]1O [D, N^6-cyclopentyl-5′-(N-methyl)carboxamidoadenosine]	20%	19.1 nM	0.0039 µmol/kg	–	–
CC(C)NC(=O)[C@H]1O[C@@H](n2cnc3c(NC4CCCC4)ncnc32)[C@H](O)[C@@H]1O [E]	28%	11 nM	0.0034 µmol/kg	–	–
CC(C)(C)NC(=O)[C@H]1O[C@@H](n2cnc3c(NC4CCCC4)ncnc32)[C@H](O)[C@@H]1O [F, N^6-cyclopentyl-5′-(N-t-butyl)carboxamidoadenosine]	34%	72.4 nM	0.363 µmol/kg	–	–

Now from value to compound:

bioavailability [1]	EC50 (adenosine A1 receptor [2])	ED50 (adenosine A1 receptor [3]; rat, read-out: ED50)	Oral Bioavailability [1]	ED50 (adenosine A1 receptor [3])	Compound
14%	25.1 nM	0.0323 µmol/kg	–	–	CCCNC(=O)[C@H]1O[C@@H](n2cnc3c(NC4CCCC4)ncnc32)[C@H](O)[C@@H]1O [G]
–	3.8 nM	–	2.3%	0.0034 µmol/kg	O=C(NCCO)C1OC(n2cnc3c(NC4CC5CCC4C5)ncnc32)C(O)C1O (stereo not drawn) [H]
20%	7.9 nM	0.0079 µmol/kg	–	–	CCNC(=O)[C@H]1O[C@@H](n2cnc3c(NC(CC)CC)ncnc32)[C@H](O)[C@@H]1O [I, N^6-(3-pentyl)-5′-(N-ethyl)carboxamidoadenosine]
9.9%	21.8 nM	0.0083 µmol/kg	–	–	CCC(CC)Nc1ncnc2c1ncn2[C@@H]1O[C@H](C(=O)NCCO)[C@@H](O)[C@H]1O [J]
